Entries after “also recorded” stand apart in the source; their conditions may differ.
Key:
PDGFRα = assay: Western blot: RV-induced phosphorylation of PDGFRα in RCFs; assay type: cell-based, rabbit; conditions: Nutlin-3a 10 μM, RV 2 hr
Method: (§1) FIG. 1A is a photograph of a western blot showing the impact of Nutlin-3a on RV-mediated signaling events. Primary rabbit conjunctival fibroblasts (RCFs) were pre-treated with either Nutlin-3a (10 μM), or vehicle for 30 min and then exposed to either RV (diluted 1:3 in Dulbecco's Modified Eagle Medium (DMEM)), or DMEM for 2 hr. The resulting cell lysates were subjected to western blot analysis using the indicated antibodies. The numbers are a ratio of p-PDGFRα/PDGFRα, p-Akt/Akt or p53/RasGAP (Ras GTPase) activating protein. […] FIG. 1B is a bar chart showing the impact of Nutlin-3a on RV-mediated contraction. RCFs were subjected to the collagen contraction assay as described above. Nutlin-3a (10 μM) or vehicle was included as indicated. The data were subjected to a paired t test; “*” denoted a statistically significant difference.
(§2) Cells were grown to 90% confluence in serum-containing medium, and then incubated for 24 hr in medium without serum. Cells were stimulated (as detailed for each experiment), washed twice with ice-cold phosphate buffered saline (PBS), and lysed in extraction buffer (10 mM Tris-HCl, pH 7.4, 5 mM EDTA, 50 mM NaCl, 50 mM NaF, 1% Triton X-100, 20 μg/ml aprotinin, 2 mM Na3VO4, 1 mM phenylmethylsulfonyl fluoride). […] Signal intensity was determined by densitometry and analyzed with the Quantity One (Bio-Rad) software.

[1] = tested on: primary rabbit conjunctival fibroblasts (RCFs); assay: Collagen I contraction assay, RV-induced, RCFs; assay type: cell-based; conditions: Nutlin-3a 10 μM, gel measured on day 3
Method: as §1
Cells were trypsinized, washed and resuspended in 1.5 mg/ml of neutralized collagen I (INAMED, Fremont, Calif.) (pH 7.2) at a density of 1×10^6 cells/ml for RPEM or 5×10^4 cells/ml for RCFs. The mixture was aliquoted into wells of a 24-well plate that had been preincubated overnight with 5 mg/ml bovine serum albumin in PBS. […] The media were replaced every day, and the gel diameter was measured on day 3. The gel area was calculated using the formula πr2, where r is the radius of the gel.

retina = assay: Retinal toxicity after intravitreal injections in rabbits; assay type: in vivo; conditions: multiple intravitreal injection of up to 20 micromolar, day 0, 2 and 4; fundus exams to day 14, histology
Method: FIGS. 9A-9B include a series of photographs showing epiretinal membranes from rabbits subjected to the PVR protocol. Rabbits that underwent a gas vitrectomy were intravitreally injected with the indicated concentration of Nutlin-3a on day 0, 2 and 4. The rabbits underwent a fundus examination on day 1, 3, 5, 7 and 14. Following the last fundus exam rabbits were euthanized, eyes were enucleated and fixed in 10% formalin. Sections were prepared, stained with hematoxylin and eosin, and then photographed. Representative photos of a Nutlin-3a (FIG. 9A) and vehicle (FIG. 9B) injected eye are presented. Arrowheads and arrows point to the retina and epiretinal membrane, respectively; scale bar: 50 μm. The lack of the retinal pigment epithelial cell layer is an artifact related to processing of the tissue.

Akt = assay: Western blot: RV-induced activation of Akt in RCFs; assay type: cell-based, rabbit; conditions: Nutlin-3a 10 μM, RV 2 hr
Method: as §1, §2

[2] = tested on: upstream signaling events; assay: Western blot: HV-mediated upstream signaling events in RPE cells from a human PVR membrane; assay type: cell-based; conditions: RPE cells from human epiretinal membrane, HV diluted 1:3
Text: (§3) FIGS. 7A-7B include a photograph of a western blot and a bar chart showing p53 attenuated human vitreous humor (HV)-driven collagen gel contraction. FIG. 7A is a photograph of a western blot showing the impact of Nutlin-3a on HV-mediated signaling events. Methods were the same as FIG. 3A, but the RPE cells from a human patient epiretinal membrane were used in place of RCF, and HV (a pool of vitreous from 5 PVR patients diluted 1:3 in DMEM) was used in place of RV. The data presented are representative of three independent experiments. FIG. 7B is a bar chart showing the impact of Nutlin-3a on HV-mediated contraction. This experiments were the same as FIG. 3B with the modification noted in FIG. 7A. The data were subjected to a paired t test. “*” denoted a statistically significant difference. The data shown are representative of three independent experiments.
(§4) RPEM cells are RPE cells derived from a human epiretinal membrane, as previously described (Wong C A et al., 2002 Can J Ophthalmol, 37:211-220). Primary rabbit conjunctival fibroblasts (RCFs) were obtained and cultured as described previously (Ikuno Y et al., 2002 Invest Ophthalmol Vis Sci, 43:2406-2411). […]
(§5) Cells were grown to 90% confluence in serum-containing medium, and then incubated for 24 hr in medium without serum. […] Signal intensity was determined by densitometry and analyzed with the Quantity One (Bio-Rad) software.

[3] = tested on: primary rabbit conjunctival fibroblasts (RCFs); assay: Maximum tolerated dose in cultured RCFs; assay type: cell-based; conditions: RCFs in DMEM+5% FBS, medium replaced every 24 hours, day 3
Method: FIGS. 8A-8B include a series of photographs showing the minimum effective dose and maximum tolerated dose of Nutlin-3a. FIG. 8A is a series of photomicrographs of western blots showing RCFs pretreated with the indicated concentrations of Nutlin-3a for 30 min, and then exposed to RV (diluted 1:3 in DMEM) for 2 hours. Cells were lysed and resulting lysates were subjected to western blot analysis using the indicated antibodies. The data shown are representative of three independent experiments. FIG. 8B is a series of photographs showing RCFs grown to near confluence in DMEM+10% FBS, the medium was replaced with DMEM+5% FBS+the indicated concentration of Nutlin-3a. The medium was replaced every 24 hours, and the photographs were taken on day 3. The data shown are representative of two independent experiments. The scale bar is 50 μm.

p53 [4] = assay: Western blot: HV-mediated fall in the level of p53 in RPE cells from a human PVR membrane; assay type: cell-based; conditions: RPE cells from human epiretinal membrane, HV pool of 5 PVR patients diluted 1:3
Text: as §3, §4, §5

[5] = tested on: proliferative vitreoretinopathy (PVR); assay: Rabbit model for PVR (Fastenberg scale); assay type: in vivo, Dutch Belted rabbits
Method: (§6) FIGS. 2A-2B include a dot plot and a series of photomicrographs showing that Nutlin -3a prevented retinal detachment and elevated p53 in epiretinal membranes. FIG. 2A is a dot plot illustrating the impact of Nutlin-3a on experimental PVR. RCFs were used to induce PVR as described below. The indicated rabbits received no additional injections (none) or 0.1 cc injections of either vehicle, or Nutlin-3a (20 μM) on day 0, 2 and 4. The data were subjected to an unpaired t test or one way Analysis of Variance (ANOVA) test; “*” denoted a statistically significant difference. FIG. 2B is a series of photographs showing that Nutlin-3a enhanced expression of p53 in epiretinal membranes. At the end of the experiment (day 28), the eyes were enucleated, and paraffin sections of whole eyes were subjected to p53 immunohistochemistry. The arrows point to the epiretinal membrane (the arrowheads denote the retina and the brown color indicates p53). The left and right panels are from a Nutlin-3a injected animal, whereas the middle panel is from a rabbit treated with vehicle. The left and middle panels were stained with the p53 antibody, whereas the right panel was stained with non-immune IgG. The scale bar is 50 μm.
PVR was induced in Dutch Belted rabbits, purchased from Covance (Denver, Pa.), as previously described (Lei H et al., 2009 Invest Ophthalmol Vis Sci, 50:3394-3403). Briefly, a gas vitrectomy was performed by injecting 0.1 ml of perfluoropropane (C3F8) (Alcon, Fort Worth, Tex.) into vitreous. One week later, the right eye of rabbits was injected in one of two ways. For the experiment injecting RCFs expressing shRNAs, 0.1 ml of DMEM containing 1×10^5 RCFs that were modified as outlined in the legend were injected along with 0.1 ml rabbit platelet-rich plasma. For the Nutlin-3a experiment, all rabbits were injected with 0.1 ml of DMEM containing 1×10^5 unmodified RCFs, 0.1 ml rabbit platelet rich plasma and either not injected a third time, or injected with vehicle, or 0.1 ml of 200 μM Nutlin-3a. The vehicle or Nutlin-3a injection was repeated on day 3 and 5. The retinal status was evaluated with an indirect ophthalmoscope fitted with a +30 D fundus lens on day 1, 3, 5, 7, 14, 21 and 28. PVR was graded according to the Fastenberg scale of classification 41: stage 0, no disease; stage 1, epiretinal membrane; stage 2, vitreoretinal traction without retinal detachment; stage 3, localized retinal detachment (1-2 quadrants); stage 4, extensive retinal detachment (2-4 quadrants without complete detachment); stage 5, complete retinal detachment. On day 28, animals were sacrificed, and eyes were enucleated and frozen at −80° C.

p53 [6] = assay: Western blot: RV-mediated decline in the level of p53 in RCFs; assay type: cell-based, rabbit
Method: as §1
FIGS. 8A-8B include a series of photographs showing the minimum effective dose and maximum tolerated dose of Nutlin-3a. FIG. 8A is a series of photomicrographs of western blots showing RCFs pretreated with the indicated concentrations of Nutlin-3a for 30 min, and then exposed to RV (diluted 1:3 in DMEM) for 2 hours. […]
as §5

[7] = tested on: RPE cells isolated from a human PVR membrane; assay: Collagen contraction assay, HV-stimulated, RPE cells from a human PVR membrane; assay type: cell-based; conditions: RPE cells from human epiretinal membrane, HV diluted 1:3
Text: as §3
RPEM cells are RPE cells derived from a human epiretinal membrane, as previously described (Wong C A et al., 2002 Can J Ophthalmol, 37:211-220). […]
(§7) Cells were trypsinized, washed and resuspended in 1.5 mg/ml of neutralized collagen I (INAMED, Fremont, Calif.) (pH 7.2) at a density of 1×10^6 cells/ml for RPEM or 5×10^4 cells/ml for RCFs. […] The media were replaced every day, and the gel diameter was measured on day 3. The gel area was calculated using the formula πr2, where r is the radius of the gel.

p53 [8] = assay: p53 immunohistochemistry of epiretinal membranes from PVR rabbits; assay type: in vivo, rabbit; conditions: day 28, immunohistochemistry
Method: as §6
Rabbit eyeballs were fixed in 10% formalin for 48 hr and embedded in paraffin after dehydration. […]

Fβ cells = assay: Collagen contraction assay, RV-induced, Fβ cells; assay type: cell-based, mouse; conditions: Imatinib 10 μM, day 3
Text: (§8) FIGS. 10A-10B include a series of bar graphs showing that inhibiting PDGFRα kinase activity blocked RV-induced collagen contraction. The indicated RCFs (50,000 cells/ml) (FIG. 10A) or F cells (1 million cells/ml) (FIG. 10B) were subjected to a collagen contraction assays as described below. […] The panels below the bar graphs show photographs of representative gels; the data presented are representative of 3 independent experiments. The data were subjected to a paired t test; “*” denoted a statistically significant difference.
(§9) RPEM cells are RPE cells derived from a human epiretinal membrane, as previously described (Wong C A et al., 2002 Can J Ophthalmol, 37:211-220). Primary rabbit conjunctival fibroblasts (RCFs) were obtained and cultured as described previously (Ikuno Y et al., 2002 Invest Ophthalmol Vis Sci, 43:2406-2411). RCFs that stably expressed the shRNA targeting vector specific for GFP, PDGFRα, p53 or PDGFRα and p53 were designated sh GFP, sh PDGFRα sh p53 and sh PDGFRα/p53, respectively.
as §7

Fα cells = assay: Collagen contraction assay, RV-induced, Fα cells; assay type: cell-based, mouse; conditions: Imatinib 10 μM, day 3
Text: as §8, §9, §7

sh GFP cells = assay: Collagen contraction assay, RV-induced, sh GFP RCFs; assay type: cell-based, rabbit; conditions: Imatinib 10 μM, day 3
Text: as §8
Cells were trypsinized, washed and resuspended in 1.5 mg/ml of neutralized collagen I (INAMED, Fremont, Calif.) (pH 7.2) at a density of 1×10^6 cells/ml for RPEM or 5×10^4 cells/ml for RCFs. The mixture was aliquoted into wells of a 24-well plate that had been preincubated overnight with 5 mg/ml bovine serum albumin in PBS. The collagen solution was solidified by incubating at 37° C. for 90 min, and overlaid with medium containing the desired agents. The media were replaced every day, and the gel diameter was measured on day 3. The gel area was calculated using the formula πr2, where r is the radius of the gel.

COc1ccc(C2=N[C@@H](c3ccc(Cl)cc3)[C@@H](c3ccc(Cl)cc3)N2C(=O)N2CCNC(=O)C2)c(OC(C)C)c1 (single isomer, unassigned) [Nutlin-3a]
RV-induced phosphorylation of PDGFRα (PDGFRα): no effect
RV-mediated contraction of collagen gels [1]: effectively blocked
overt signs of retinal toxicity (retina): did not produce overt signs of retinal toxicity
RV-induced activation of Akt (Akt): no effect
upstream signaling events in HV-treated cells [2]: without impacting upstream signaling events
maximum tolerated dose [3]: 30 µM
HV-induced fall in the level of p53 (p53 [4]): prevented the precipitous fall
animals that succumbed to even partial retinal detachment (stage 3 or 4) ([5]; by day 28, intravitreal Nutlin-3a injections): 0%
formation of epiretinal membranes (stage 1 and 2) ([5]; intravitreal Nutlin-3a injections, to day 28): slowed formation of membranes; also recorded: did form membranes
retinal detachment ([5]; series of intravitreal injections): completely prevented
rabbits that developed vitreal traction (stage 2) ([5]; series of intravitreal injections, end of experiment (day 28)): 50%
RV-mediated decline in the level of p53 (p53 [6]; RCFs pre-treated with Nutlin-3a 10 μM 30 min, then RV (1:3 in DMEM) 2 hr): effectively blocked
minimum dose to prevent the RV-induced reduction of p53 (p53 [6]; RCFs pretreated 30 min, RV (1:3) 2 hours): 2 µM
HV-stimulated contraction of RPE-containing collagen gels [7]: inhibited
p53 level in epiretinal membranes versus vehicle-injected controls (p53 [8]): higher

Cc1ccc(NC(=O)c2ccc(CN3CCN(C)CC3)cc2)cc1Nc1nccc(-c2cccnc2)n1 [Imatinib]
RV-induced contraction in cells expressing PDGFRβ (Fβ) (Fβ cells): did not improve RV-induced contraction or generate sensitivity to Imatinib
RV-stimulated contraction in cells expressing PDGFRα (Fα) (Fα cells): erased
RV-induced contraction in sh GFP cells (sh GFP cells): completely blocked
